The source made the active and inactive calls. The calls are words filed in the database; no cut-off is given here.
Experiments:
Assay type in all cases: functional, cell-based
[1] = target: T1, Muscarinic acetylcholine receptor M1 (Rattus norvegicus) (UniProt P08482); assay: Agonist activity at rat muscarinic M1 receptor expressed in CHO cells at 10 uM
T1 sequence (whole entry): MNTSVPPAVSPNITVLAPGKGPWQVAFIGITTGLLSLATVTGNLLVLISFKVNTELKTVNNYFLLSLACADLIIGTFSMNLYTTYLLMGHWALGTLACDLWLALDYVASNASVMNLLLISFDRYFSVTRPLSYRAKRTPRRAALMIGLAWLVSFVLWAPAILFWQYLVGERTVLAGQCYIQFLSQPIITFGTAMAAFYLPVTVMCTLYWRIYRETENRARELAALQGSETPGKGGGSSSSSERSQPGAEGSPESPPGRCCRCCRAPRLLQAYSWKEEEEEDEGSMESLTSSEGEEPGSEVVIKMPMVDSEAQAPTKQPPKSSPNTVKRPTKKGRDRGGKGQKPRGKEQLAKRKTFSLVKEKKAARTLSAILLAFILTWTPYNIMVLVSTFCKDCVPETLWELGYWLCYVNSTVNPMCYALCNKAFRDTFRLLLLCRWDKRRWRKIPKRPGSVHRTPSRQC

[2] = target: T2, Muscarinic acetylcholine receptor M4 (Rattus norvegicus, UniProt P08485); assay: Agonist activity at rat muscarinic M4 receptor expressed in CHO cells
T2 sequence (P08485 whole entry): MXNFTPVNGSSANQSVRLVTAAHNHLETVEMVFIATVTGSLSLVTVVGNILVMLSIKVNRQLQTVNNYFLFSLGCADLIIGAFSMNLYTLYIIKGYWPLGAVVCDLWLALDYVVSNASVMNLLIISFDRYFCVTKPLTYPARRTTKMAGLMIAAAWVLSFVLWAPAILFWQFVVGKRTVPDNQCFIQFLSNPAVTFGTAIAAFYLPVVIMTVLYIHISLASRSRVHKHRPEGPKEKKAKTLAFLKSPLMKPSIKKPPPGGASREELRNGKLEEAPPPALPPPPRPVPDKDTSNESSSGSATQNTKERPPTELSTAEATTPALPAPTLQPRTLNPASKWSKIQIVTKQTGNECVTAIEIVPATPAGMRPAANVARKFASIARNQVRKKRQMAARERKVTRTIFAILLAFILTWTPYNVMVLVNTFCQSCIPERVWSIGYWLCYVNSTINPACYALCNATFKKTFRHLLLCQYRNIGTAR

[3] = target: Muscarinic acetylcholine receptor M3 (Rattus norvegicus, UniProt P08483); assay: Agonist activity at rat muscarinic M3 receptor expressed in CHO cells
[4] = target: T3, Muscarinic acetylcholine receptor M5 (Rattus norvegicus, UniProt P08911); assay: Agonist activity at rat muscarinic M5 receptor expressed in CHO cells
T3 sequence (P08911 whole entry): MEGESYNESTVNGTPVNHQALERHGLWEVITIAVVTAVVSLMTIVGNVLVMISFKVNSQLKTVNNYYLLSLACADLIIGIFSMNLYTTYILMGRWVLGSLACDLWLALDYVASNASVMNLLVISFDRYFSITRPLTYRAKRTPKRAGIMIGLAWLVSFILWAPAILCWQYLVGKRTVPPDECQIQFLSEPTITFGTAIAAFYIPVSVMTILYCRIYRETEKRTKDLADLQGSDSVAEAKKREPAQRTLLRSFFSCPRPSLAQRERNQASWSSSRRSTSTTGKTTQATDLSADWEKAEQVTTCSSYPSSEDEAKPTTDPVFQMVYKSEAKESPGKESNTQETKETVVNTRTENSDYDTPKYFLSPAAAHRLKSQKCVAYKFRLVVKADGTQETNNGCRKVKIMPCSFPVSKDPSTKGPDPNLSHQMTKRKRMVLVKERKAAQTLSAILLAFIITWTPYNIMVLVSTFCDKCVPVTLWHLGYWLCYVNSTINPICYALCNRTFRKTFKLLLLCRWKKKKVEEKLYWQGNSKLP

[5] = target: T4, Muscarinic acetylcholine receptor M2 (Rattus norvegicus, UniProt P10980); assay: Agonist activity at rat muscarinic M2 receptor expressed in CHO cells
T4 sequence (P10980 whole entry): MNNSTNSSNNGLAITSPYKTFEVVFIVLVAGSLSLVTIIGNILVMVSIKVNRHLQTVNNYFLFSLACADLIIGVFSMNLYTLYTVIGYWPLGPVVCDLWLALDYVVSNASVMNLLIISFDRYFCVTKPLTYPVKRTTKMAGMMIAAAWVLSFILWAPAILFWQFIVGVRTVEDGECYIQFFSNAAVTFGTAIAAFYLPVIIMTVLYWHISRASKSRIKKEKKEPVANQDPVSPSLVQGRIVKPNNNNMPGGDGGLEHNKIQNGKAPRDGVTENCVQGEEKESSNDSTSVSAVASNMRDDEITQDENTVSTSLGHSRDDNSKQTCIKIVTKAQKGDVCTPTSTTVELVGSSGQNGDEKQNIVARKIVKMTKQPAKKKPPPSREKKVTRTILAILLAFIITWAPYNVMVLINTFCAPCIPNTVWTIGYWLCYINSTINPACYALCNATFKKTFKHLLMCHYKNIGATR

[6] = target: T5, Muscarinic acetylcholine receptor M1 (Rattus norvegicus, UniProt P08482); assay: Agonist activity at rat muscarinic M1 receptor expressed in CHO cells
T5 sequence (P08482 whole entry): T1 sequence (whole entry)

[7] = target: T1, Muscarinic acetylcholine receptor M1 (Rattus norvegicus); assay: Agonist activity at rat muscarinic M1 receptor expressed in CHO cells relative to acetylcholine

Chain of Muscarinic acetylcholine receptor M3 (P08483 whole entry): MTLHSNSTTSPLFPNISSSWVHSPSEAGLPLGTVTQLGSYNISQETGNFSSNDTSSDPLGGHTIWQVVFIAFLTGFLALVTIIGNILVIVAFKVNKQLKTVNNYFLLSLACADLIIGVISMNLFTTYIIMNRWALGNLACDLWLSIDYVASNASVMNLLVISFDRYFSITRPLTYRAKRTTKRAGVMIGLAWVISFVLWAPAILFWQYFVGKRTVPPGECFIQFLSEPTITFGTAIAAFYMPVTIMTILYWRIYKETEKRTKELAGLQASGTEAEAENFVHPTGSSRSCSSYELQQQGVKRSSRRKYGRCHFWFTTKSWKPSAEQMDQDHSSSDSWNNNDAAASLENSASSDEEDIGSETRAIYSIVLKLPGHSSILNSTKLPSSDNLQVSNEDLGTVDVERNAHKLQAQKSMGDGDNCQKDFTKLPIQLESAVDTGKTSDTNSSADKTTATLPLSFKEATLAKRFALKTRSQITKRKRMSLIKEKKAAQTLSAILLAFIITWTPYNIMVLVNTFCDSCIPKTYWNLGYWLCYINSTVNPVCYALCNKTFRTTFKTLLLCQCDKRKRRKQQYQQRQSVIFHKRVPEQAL

SMILES | activation [1] | EC50 [2] [µM] | EC50 [3] [µM] | EC50 [4] [µM] | EC50 [5] [µM] | EC50 [6] [µM] | Emax [7] [%]
CCOC(=O)N1CCC(N[C@H]2CCN(C(=O)c3ccccc3C)C2)CC1 | < 30% |  |  |  |  |  | 
CCOC(=O)N1CCC(N[C@@H]2CCN(C(=O)c3ccccc3C)C2)CC1 | < 30% |  |  |  |  |  | 
CCOC(=O)N1CCC(N2CCC[C@@H](NC(=O)C3CCCC3)C2)CC1 |  | > 10 | > 10 | > 10 | > 10 |  | 35
CCOC(=O)N1CCC(N2CCC[C@@H](NC(=O)C3CCCCC3)C2)CC1 |  | > 10 | > 10 | > 10 | > 10 |  | 44
CCOC(=O)N1CCC(N2CCC[C@@H](NC(=O)c3ccc(F)c(F)c3)C2)CC1 |  | > 10 | > 10 | > 10 | > 10 |  | 84
CCOC(=O)N1CCC(N2CCN(C(=O)c3ccccc3C)CC2)CC1 | < 30% |  |  |  |  |  | 
CCOC(=O)N1CCC(N2C[C@H]3CN(C(=O)c4ccccc4C)C[C@H]3C2)CC1 | < 30% |  |  |  |  |  | 
CCOC(=O)N1CCC(N2C[C@@H]3C[C@H]2CN3C(=O)c2ccccc2C)CC1 | < 30% |  |  |  |  |  | 

The remaining lines, values ahead:

activation [1] | EC50 [2] [µM] | EC50 [3] [µM] | EC50 [4] [µM] | EC50 [5] [µM] | EC50 [6] [µM] | Emax [7] [%] | SMILES
 | > 10 | > 10 | > 10 | > 10 | 0.25 | 91 | CCOC(=O)N1CCC(N2CCC[C@@H](NC(=O)c3cccc(OC)c3)C2)CC1
< 30% |  |  |  |  |  |  | CCOC(=O)N1CCC(N2CC[C@@H](NC(=O)c3ccccc3C)C2)CC1
 | > 10 | > 10 | > 10 | > 10 | 0.13 | 91 | CCOC(=O)N1CCC(N2CCC[C@@H](NC(=O)c3ccccc3)C2)CC1
 | > 10 | > 10 | > 10 | > 10 |  | 41 | CCOC(=O)N1CCC(N2CCC[C@@H](NC(=O)c3ccc(C)cc3)C2)CC1
inactive |  |  |  |  |  |  | CCOC(=O)N1CCC(N2CCC[C@H](NC(=O)c3ccccc3C)C2)CC1
< 30% |  |  |  |  |  |  | CCOC(=O)N1CCC(N2CC[C@H](NC(=O)c3ccccc3C)C2)CC1
 | > 10 | > 10 | > 10 | > 10 | 0.14 | 92 | CCOC(=O)N1CCC(N2CCC[C@@H](NC(=O)c3cccc(F)c3)C2)CC1
 | > 10 | > 10 | > 10 | > 10 |  | 57 | CCOC(=O)N1CCC(N2CCC[C@@H](NC(=O)c3ccccc3Cl)C2)CC1
 | > 10 | > 10 | > 10 | > 10 |  | 63 | CCOC(=O)N1CCC(N2CCC[C@@H](NC(=O)c3ccc(OC)cc3)C2)CC1
 | > 10 | > 10 | > 10 | > 10 |  | 61 | CCOC(=O)N1CCC(N2CCC[C@@H](NC(=O)c3cccs3)C2)CC1
 | > 10 | > 10 | > 10 | > 10 | 0.06 | 77 | CCOC(=O)N1CCC(N2CCC[C@@H](NC(=O)c3ccc(F)cc3C)C2)CC1

— ChEMBL document CHEMBL1914417 (Bioorg Med Chem Lett, 2011)
